# Results as given in patent US20250205248A1, “REPURPOSING VARENICLINE AS AN ANTI-INFLAMMATORY AGENT WITH ITS SUPPRESSOR EFFECTS ON INFLAMMATORY CYTOKINES” (IZMIR EKONOMI UNIVERSITESI, priority 2022, published 2025).
# Counter-ions that a name gives are not always drawn.
# How the values were obtained:
# sepsis = details: cited from earlier work
# [1] = tested on: LPS-activated RAW264.7 macrophage cell cultures; details: cited from earlier work
# [2] = tested on: RAW 264.7 murine macrophage cells; assay: LPS-induced inflammatory cytokine levels (IL-1β, IL-6, TNFα) by ELISA in RAW 264.7 cells; format: cell-based; details: for IL-1β level in presence of nAChR antagonist / IL-6 level in presence of nAChR antagonist / TNFα level in presence of nAChR antagonist: antagonist 30 minutes before varenicline and LPS, compared to varenicline-treated groups
# Description: RAW 264.7 murine macrophage cells maintained in culture media supplemented with heat inactivated FBS (10%) and penicillin (100 U/ml) and streptomycin (100 μg/ml) at 37° C. in a 5% CO2 incubator were used during the experimental studies. The cells (500,000/well) were seeded in 48-well culture plates after detachment with scraping incubated for 24 h in serum-free media for reattachment to the surface. In the first group, the cells were treated with LPS at increasing concentrations to determine the effective concentration at which cytokines are released. In the second group, the cells were pretreated with varenicline tartarate with increasing concentrations in presence of LPS to determine effective varenicline concentration on LPS-induced cytokine levels. Additionally, the anti-inflammatory effect of varenicline was compared with that of dexamethasone. In the third group, a non-selective nicotinic ACh receptor antagonist mecamylamine hydrochloride and a selective α7nAChR antagonist methyllycaconitine citrate were applied prior to varenicline and LPS administration in order to investigate the involvement of nicotinic receptors.
# The inflammatory response of macrophage cells was evaluated by the change in inflammatory cytokine levels (IL-1β, IL-6 and TNFα) after 24 hours. In other groups where the effect of varenicline will be investigated, the LPS concentration, which triggers the increase in all cytokines determined in the first group and employed for the induction of inflammatory response. Increasing concentrations of varenicline were administered 30 minutes before LPS administration, LPS-induced cytokine levels were analyzed at the end of 24-hour protocol and the effective concentration on cytokine levels were determined in the second group. The effective concentration of varenicline was used in the third group in which the receptor-mediated effects investigated.
# (§1) Antagonist drugs was applied 30 minutes before varenicline and LPS applications. Thus, the role of α7nAChRs and activation of the cholinergic anti-inflammatory pathway was determined at the end of 24-hour protocol by examining LPS-induced inflammatory cytokine levels (IL-1β, IL-6 and TNFα) in addition to 40 different cytokines and chemokines.
# (§2) The results are as follows for the application of the invention. (1) Cytokine levels (IL-1β, IL-6 and TNFα) examined by the ELISA method were increased at the end of 24-hour protocol after induced by LPS in RAW 264.7 cells.
# [3] = tested on: RAW 264.7 murine macrophage cells; assay: LPS-induced cell proliferation; format: cell-based
# Description: (§3) Here, in the application subject invention, the anti-inflammatory potential of varenicline, which is used in the treatment of smoking cessation, was determined for the first time by suppressing increased cytokine levels in inflammatory conditions. According to the current study, the anti-inflammatory activity of varenicline is not limited to its suppression of cytokine levels, but is also associated with suppressed proliferation and macrophage migration rates (FIGS. 4A-6C).
# FIGS. 4A-4B. Effects of varenicline on LPS-induced cell proliferation in the presence or absence of nAChR antagonists.
# (§4) This invention points out repurposing of varenicline and provides mechanical insights about the effects of varenicline on α7nAChR-mediated activation of cholinergic anti-inflammatory pathway (CAP), cell proliferation, and migration in the in vitro inflammation model induced by LPS.
# RAW 264.7 macrophages = assay: LPS-induced cytokine and chemokine panel in RAW 264.7 macrophages; format: cell-based, mouse
# Description: FIGS. 6A-6C. Effects of varenicline on LPS-induced 14 mouse cytokines levels in RAW 264.7 macrophages.
# as §1, §2
# α7nAChRs = α7nAChRs (Homo sapiens, UniProt P36544); details: cited from earlier work
# smokers = details: 3 months of treatment; cited from earlier work
# [4] = tested on: transient middle cerebral artery ischemia model; details: mice, treatment for one week, cited from earlier work
# [5] = tested on: RAW 264.7 murine macrophage cells; assay: LPS-induced macrophage migration; format: cell-based
# Description: as §3
# FIGS. 5A-5B. Effects of varenicline on LPS-induced cell migration in the presence or absence of nAChR antagonists
# as §4
# [6] = tested on: emphysema induced by porcine pancreatic elastase; details: mice, PPE emphysema, cited from earlier work
# α4β2nAChRs = α4β2nAChRs (Homo sapiens, UniProt P17787+P43681); details: central nervous system; cited from earlier work
# [7] = tested on: RAW 264.7 macrophage cells stimulated with LPS; details: via α7nAChR activation; LPS-stimulated RAW 264.7; cited from earlier work
# [8] = varenicline 30 minutes before LPS, 24-hour protocol, compared to the LPS group
# Chain of α4β2nAChRs (P43681 29-627 limits assumed): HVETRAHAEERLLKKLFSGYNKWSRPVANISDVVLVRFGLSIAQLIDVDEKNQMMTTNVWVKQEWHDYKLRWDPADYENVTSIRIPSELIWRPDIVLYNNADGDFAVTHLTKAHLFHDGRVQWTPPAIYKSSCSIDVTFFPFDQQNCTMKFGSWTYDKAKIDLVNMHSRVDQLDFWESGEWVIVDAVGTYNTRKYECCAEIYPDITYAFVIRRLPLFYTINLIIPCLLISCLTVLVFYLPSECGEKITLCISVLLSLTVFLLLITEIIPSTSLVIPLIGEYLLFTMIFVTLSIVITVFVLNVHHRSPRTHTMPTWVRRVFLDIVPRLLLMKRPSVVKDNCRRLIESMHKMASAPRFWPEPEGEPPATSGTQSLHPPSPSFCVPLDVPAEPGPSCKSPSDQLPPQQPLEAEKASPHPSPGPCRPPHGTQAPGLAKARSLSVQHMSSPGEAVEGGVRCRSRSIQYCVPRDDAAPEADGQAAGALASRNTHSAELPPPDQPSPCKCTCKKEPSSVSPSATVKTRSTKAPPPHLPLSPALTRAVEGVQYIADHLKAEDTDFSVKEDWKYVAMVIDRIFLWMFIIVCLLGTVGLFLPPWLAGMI
# Chain of α4β2nAChRs (P17787 26-502): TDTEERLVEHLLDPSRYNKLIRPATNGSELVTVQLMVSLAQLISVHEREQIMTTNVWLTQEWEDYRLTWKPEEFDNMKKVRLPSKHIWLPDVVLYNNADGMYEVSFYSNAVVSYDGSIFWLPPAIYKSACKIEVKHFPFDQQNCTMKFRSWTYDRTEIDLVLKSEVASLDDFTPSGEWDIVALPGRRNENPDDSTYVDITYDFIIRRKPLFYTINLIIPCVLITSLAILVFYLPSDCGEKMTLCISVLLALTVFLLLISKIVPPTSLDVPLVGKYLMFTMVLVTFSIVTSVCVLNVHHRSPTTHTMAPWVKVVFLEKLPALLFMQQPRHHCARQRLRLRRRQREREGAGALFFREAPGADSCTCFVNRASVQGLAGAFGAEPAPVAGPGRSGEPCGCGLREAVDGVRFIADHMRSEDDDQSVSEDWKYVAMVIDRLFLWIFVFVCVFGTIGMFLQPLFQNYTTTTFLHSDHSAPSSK
# Chain of α7nAChRs (P36544 23-502): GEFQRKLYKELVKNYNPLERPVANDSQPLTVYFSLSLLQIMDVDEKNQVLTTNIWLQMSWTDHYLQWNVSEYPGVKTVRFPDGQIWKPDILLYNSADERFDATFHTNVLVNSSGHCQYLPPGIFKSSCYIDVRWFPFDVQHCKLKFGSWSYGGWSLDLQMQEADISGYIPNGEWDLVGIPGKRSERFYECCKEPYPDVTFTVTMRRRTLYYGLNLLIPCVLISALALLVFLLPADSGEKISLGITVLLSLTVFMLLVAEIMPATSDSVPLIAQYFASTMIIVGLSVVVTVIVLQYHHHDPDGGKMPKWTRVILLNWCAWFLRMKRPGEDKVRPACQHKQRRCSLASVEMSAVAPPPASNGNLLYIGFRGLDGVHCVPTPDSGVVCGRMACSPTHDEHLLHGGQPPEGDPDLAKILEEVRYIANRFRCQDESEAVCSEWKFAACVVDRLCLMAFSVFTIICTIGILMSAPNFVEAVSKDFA
compound,measurement,setting,value
COc1ccc(/C=C2\CCCN=C2c2cccnc2)c(OC)c1 [GTS-21],cytokine levels that increased due to inflammation,sepsis,decreased
same,life span of experimental animals,sepsis,extended
same,HMGB-1 level,[1],significantly reduces
same,TNFα level,[1],significantly reduces
"CNC1(C)C2CCC(C2)C1(C)C (stereo not shown) [MEC, mecamylamine hydrochloride]",IL-1β level in presence of nAChR antagonist,[2],significantly increased
same,IL-6 level in presence of nAChR antagonist,[2],significantly increased
same,TNFα level in presence of nAChR antagonist,[2],significantly increased
"c1cnc2cc3c(cc2n1)[C@@H]1CNC[C@H]3C1 [Varenicline, varenicline]",proliferation rate,[3],suppressed
same,IL-1β level,[2]; [8],significantly decreased
same,IL-6 level,[2]; [8],significantly decreased
same,TNFα level,[2]; [8],significantly decreased
same,"LPS-induced 14 different cytokines and chemokines (G-CSF, GM-CSF, IL-1, IL-6, IL-27, IL-1ra, IP-10, MCP-1, MIP-1, RANTES, TNF α)",RAW 264.7 macrophages,significantly decreased
same,effect on α7nAChRs,α7nAChRs,potent and complete agonist
same,atherosclerosis,smokers,reduced
same,endothelial damage,smokers,reduced
same,oxidative stress,smokers,reduced
same,use of damaged forelimbs,[4],increased
same,inflammation in the corpus striatum,[4]; immunohistochemical analysis,decreased
same,macrophage migration rate,[5],suppressed
same,inflammation,[6]; immunohistochemical analysis,reduce
same,number of T cells in tissue,[6]; with activation of α7nAChR,significantly reduced
same,number of macrophages in tissue,[6]; with activation of α7nAChR,significantly reduced
same,number of neutrophils in tissue,[6]; with activation of α7nAChR,significantly reduced
same,effect on α4β2nAChRs,α4β2nAChRs,partial agonistic effect
CN1CCCC1c1cccnc1 (stereo not shown) [nicotine],TNFα levels,[7],decrease
methyllycaconitine citrate [MLA],IL-1β level in presence of nAChR antagonist,[2],significantly increased
same,IL-6 level in presence of nAChR antagonist,[2],significantly increased
same,TNFα level in presence of nAChR antagonist,[2],significantly increased
